{"source": "a melting point compilation (Tetko et al.; mined from patent text by program, amines drawn as free bases though some values may be those of a salt)", "data": [{"units": {"melting point": "°C"}, "values": [{"smiles": "O=C(NCCc1cccs1)C12CC3CC(CC(O)(C3)C1)C2", "melting point": "118 to 119"}, {"smiles": "COc1ccc2c(c1)c(Cc1nc(-c3ccc([N+](=O)[O-])cc3)cs1)c(C)n2C(=O)c1ccc(Cl)cc1", "melting point": 219}, {"smiles": "O=C(O)CC1CCc2c(cccc2OC2CCCCO2)C1", "note": "(stereo unspecified)", "melting point": "104 to 109"}, {"smiles": "CCCCCCCCCCCCOc1ccc(C(=O)Oc2ccc(C(=O)OC3CCC(CCC)(CCC)OC3=O)cc2)cc1", "note": "(stereo unspecified)", "melting point": 91}, {"smiles": "COc1cccc(-c2ccc3ccc(OC)cc3c2)c1", "melting point": "58 to 59"}, {"smiles": "COc1ccc2c(c1)c(CC(=O)O)c(C)n2C(=O)c1c(Cl)cc(Cl)cc1Cl", "melting point": "193 to 196"}, {"smiles": "CC(C)Oc1c(C(=O)O)sc2c1CN(C(=O)OC(C)(C)C)CC2", "melting point": "128 to 129"}, {"smiles": "C=C(C)C(=O)OCCOCc1ccc(O)c2ncccc12", "melting point": "90 to 91"}, {"smiles": "CCOC(=O)C1=C(N)NC(C)=CC1c1ccccc1C", "note": "(stereo unspecified)", "melting point": 159}, {"smiles": "CC1=NN=C(c2ccc(NC(=O)CN)cc2)c2cc3c(cc2C1)OCO3", "melting point": "223 to 225"}, {"smiles": "CC(C(N)=O)c1ccc2c(c1)CCc1cccnc1O2", "note": "(stereo unspecified)", "melting point": "162 to 165"}, {"smiles": "CS(=O)(=O)C(=C1CN(C(c2ccccc2)c2ccccc2)C1)c1cccc(OC(F)(F)F)c1", "melting point": 162}, {"smiles": "CCOCCc1ccc(OCCNc2ncnc3scc(C)c23)c(C)c1", "melting point": "55 to 57"}, {"smiles": "CCOc1ccc(OCC(=O)O)c2c1C(=O)N(CSc1nnnn1-c1ccccc1)S2(=O)=O", "melting point": "187 to 189"}, {"smiles": "Cc1ccc(C(=O)n2c3c(c4ccccc42)C(C(=O)O)CCC3)cc1", "note": "(stereo unspecified)", "melting point": "181 to 183"}, {"smiles": "CCCCCCCCCCCCCCC(=O)C(=O)N[C@@H](CCCC)COCC(=O)OCC", "melting point": "41 to 43"}, {"smiles": "CCCc1c2c(c(F)c3c(=O)cc(C(=O)OCC)oc13)CCCC2", "melting point": "126 to 129"}, {"smiles": "CNC(=O)NCCn1c(-c2ccc(CCN3CCOCC3)cc2)csc1=Nc1ccc(F)c(C)c1", "melting point": "167 to 171"}, {"smiles": "O=Cc1ccc(C=Cc2ccc(C=O)cc2)cc1", "melting point": 169}, {"smiles": "COc1ccccc1-c1ccc2cnc(Nc3cccc(C4CCN(C)CC4)c3OC)nn12", "melting point": "74 to 89"}, {"smiles": "CCCCc1nc2cccc(C(=O)OCOC(=O)C(C)(C)C)c2n1Cc1ccc(-c2ccccc2-c2nnn[nH]2)cc1", "melting point": "102 to 105"}, {"smiles": "CCOC(=O)N(CC(=O)O)C(=O)c1c(F)ccc2c(C(F)(F)F)c(OC)ccc12", "melting point": "136 to 138"}, {"smiles": "COCc1cc(N2CCOCC2)ncn1", "melting point": 56}, {"smiles": "NC(=O)c1cn(Cc2cccc(F)c2F)cn1", "melting point": "221 to 222"}, {"smiles": "CCc1ccnc2c([N+](=O)[O-])cc(OC)cc12", "melting point": "158 to 159"}, {"smiles": "Cc1cc(C(C)(C)C)c(OC(=O)c2ccccc2C(=O)Oc2c(C(C)(C)C)cc(C)cc2C(C)(C)C)c(C(C)(C)C)c1", "melting point": "262 to 265"}, {"smiles": "Fc1cnc(Nc2cccnc2)nc1Nc1ccc2c(c1)OCCO2", "melting point": "251 to 253"}, {"smiles": "COC(=O)c1cc(I)cc(Cl)c1OC", "melting point": "41 to 43"}, {"smiles": "CN1CCN(C(=O)c2ccc(-c3[nH]nc4c3C(=O)c3c(NC(=O)NC5CNCCO5)cccc3-4)s2)CC1", "note": "(stereo unspecified)", "melting point": 190}, {"smiles": "O=c1[nH]c(-c2ccccc2)cn1S(=O)(=O)c1ccc2c(c1)CCN2Cc1cccnc1", "melting point": "244 to 245"}, {"smiles": "CCS(=O)(=O)c1ccc(N)cc1S(=O)(=O)NC(C)(C)C", "melting point": "193 to 195"}, {"smiles": "CC1=CC2(C=C3CCC4C5CCC(=O)C5(C)CCC4C13C)OCCO2", "note": "(stereo unspecified)", "melting point": 159}, {"smiles": "CNc1ccc(/C=C/c2c(F)cccc2Cl)cc1", "melting point": "43 to 45"}, {"smiles": "CC(=O)N1CCN(c2ncc3c(=O)c(C(=O)O)c[nH]c3n2)CC1", "melting point": "298 to 300"}, {"smiles": "O=C(Nc1ccc(Oc2ccnc(N3CCCCC3)n2)c2ccccc12)c1cc(F)cc(N2CCOCC2)c1", "melting point": "190 to 191"}, {"smiles": "O=C(CC1COC1)N[C@H]1CC[C@H](CCN2CCN(c3cccc4c3OCO4)CC2)CC1", "melting point": 190}, {"smiles": "CCCOc1ccc(S(=O)(=O)NC[C@@H](C(=O)NO)N2CCCCC2)cc1", "melting point": 147}, {"smiles": "CC(=O)OC1CCC2(C)C(CCC3C2CCC2(C)C(C(C)CCCI)CCC32)C1", "note": "(stereo unspecified)", "melting point": "140 to 146"}, {"smiles": "Cc1cccc(C2c3ccccc3S(=O)(=O)N2C)c1", "note": "(single isomer, unassigned; (+))", "melting point": 154}, {"smiles": "CC1CCCC(C)N1CCNC(=O)CN1CC(c2ccccc2)CC1=O", "note": "(stereo unspecified)", "melting point": "115 to 116"}, {"smiles": "O=C(NCCN1CCCCC1)Nc1ccc(-c2nnc(CSCCOc3ccccc3)o2)cc1", "melting point": "126 to 128"}, {"smiles": "CCCOc1ccc(C(C)=O)cc1C(=O)OC", "melting point": 49}, {"smiles": "Cc1nc(-c2ccc3c(c2)NC(=O)CO3)c(-c2ccccc2)s1", "melting point": "221 to 230"}, {"smiles": "CC(C)n1nc(-c2c(-c3ccccc3)nc(N)nc2N(C)Cc2ccccc2)ccc1=O", "melting point": "167 to 168"}, {"smiles": "CCOc1ccccc1OCCNC(=O)CCC(=O)c1ccc(F)cc1", "melting point": "98 to 100"}, {"smiles": "COC(=O)Cc1cn(C)nc1O", "melting point": "118 to 119"}, {"smiles": "CCc1c(C(=O)c2cc(C)cc(C)c2)n(CC=C(C)C)c(=O)[nH]c1=O", "melting point": "255 to 260"}, {"smiles": "COC(=O)C(C#N)=C(Nc1cccnc1)SC", "melting point": "> 260"}, {"smiles": "CCn1ncc2c3[nH]c4ccnn4c(=O)c3cnc21", "melting point": "> 300"}, {"smiles": "COc1nc(SC)nc(OC)c1C1CC(=O)C=C(O)C1", "note": "(stereo unspecified)", "melting point": "195 to 200"}, {"smiles": "CCOC(=O)C(C)(C)N1COC(C)=C(I)C1=O", "melting point": "85 to 87"}, {"smiles": "O=C(Nc1ccc(Cl)cn1)c1ccc(OC(F)F)c2oc3ccccc3c12", "melting point": "155 to 157"}, {"smiles": "Cc1nc2c(Cl)cccc2c(=O)n1C1CCC(=O)NC1=O", "note": "(stereo unspecified)", "melting point": "290 to 292"}, {"smiles": "CCCN1N=C(c2ccc(F)cc2)c2cc(Cl)ccc2CS1(=O)=O", "melting point": 122}, {"smiles": "CCCOc1cc(C(=O)O)cc(S(N)(=O)=O)c1-c1ccccc1", "melting point": "155 to 157"}, {"smiles": "CC(C)CCCC(C)C1CCC2C3CC4(OCCO4)C4CC(O)CCC4(C)C3CCC12C", "note": "(stereo unspecified)", "melting point": "114 to 115"}, {"smiles": "Cn1nc(-c2cc([N+](=O)[O-])c(O)cc2F)c(Cl)c1C(F)(F)F", "melting point": "89 to 90"}, {"smiles": "O=C(NCCCCC1CCSS1)NCCCCC1CCSS1", "note": "(stereo unspecified)", "melting point": "115 to 116"}, {"smiles": "COC(=O)c1ccc(Cl)c(C(=O)NOCc2ccc(Cl)cc2)c1Cl", "melting point": "120 to 121"}, {"smiles": "O=C(c1cccs1)c1cnn2c(-c3cccc(NCC4CC=CCC4)c3)ccnc12", "note": "(stereo unspecified)", "melting point": "78 to 81"}, {"smiles": "COc1ccc(C2C(C#N)=C(N)OC3=C2C(=O)CC(c2cccc4ccccc24)C3)cc1", "note": "(stereo unspecified)", "melting point": "194 to 197"}, {"smiles": "N#CSc1nsnc1Cl", "melting point": "63 to 65"}, {"smiles": "COc1cc(NC(=O)c2cc(C(C)C)c(C(C)C)o2)ccc1C(=O)O", "melting point": "136 to 137"}, {"smiles": "O=C(O)c1cn(-c2ccc(F)cc2F)c2c(F)c(N3Cc4ccc(Cl)cc4C3)c(F)cc2c1=O", "melting point": "242 to 247"}, {"smiles": "CSCCC(NC(=O)OCc1ccccc1)C(N)=O", "note": "(racemic)", "melting point": "120 to 122"}, {"smiles": "CC(=O)NCC(C)(C)c1ccc2nc(C)[nH]c2c1", "melting point": "198 to 201"}, {"smiles": "CCCCCCC(=N)NC(=S)Nc1ccc(OC(F)(F)F)cc1", "melting point": "90 to 91"}, {"smiles": "CN1C(=O)[C@H](NC(=O)CCc2ccc(C#N)cc2)N=C(c2ccccc2)c2ccccc21", "melting point": "81 to 85"}, {"smiles": "CS(=O)(=O)c1ccc(-c2cc(-c3nc4ccccc4c(=O)n3-c3ccc(Cl)cc3)sc2N2CCOCC2)cc1", "melting point": "> 275"}, {"smiles": "COC(=O)Oc1cc(NC(=O)OCc2ccccc2)c(F)cc1Cl", "melting point": "70 to 72"}, {"smiles": "CC(C)CN1C(=O)COc2cc(F)c([N+](=O)[O-])cc21", "melting point": "108 to 110"}, {"smiles": "CCOc1nn(Cc2ccc(OCc3ccc4ccccc4n3)cc2)cc1CCC(=O)O", "melting point": "140 to 141"}, {"smiles": "CCCCCCCCCCCCCCCCCCN(C)c1ccc([N+](=O)[O-])cc1C(=O)O", "melting point": "108 to 109"}, {"smiles": "O=c1cnn(-c2cc(Cl)c(C(c3ccc(Cl)cc3)c3nc(-c4ccccc4)no3)c(Cl)c2)c(=O)[nH]1", "note": "(stereo unspecified)", "melting point": 128}, {"smiles": "O=C1NCC(c2ccc(Cl)cc2)C1c1ccccc1", "note": "(stereo unspecified)", "melting point": "130 to 135"}, {"smiles": "Cn1cc(C(=O)O)c(=O)c2c3ccc(F)c(N4CCN(c5cccc(C(F)(F)F)c5)CC4)c3ncc21", "melting point": 261}, {"smiles": "COc1cc2c(cc1Nc1ncc(Cl)c(Nc3ccccc3S(=O)(=O)N(C)C)n1)CCN(CCCN1CCOCC1)C(=O)C2", "melting point": "78 to 87"}, {"smiles": "CCOC(=O)c1nc(-c2ccc(F)cc2)[nH]c1N=NN(C)C", "melting point": 177}, {"smiles": "N#Cc1cnc2cc(F)c(OCCN3CCOCC3)cc2c1Cl", "melting point": "163 to 164"}, {"smiles": "COC(=O)c1ccc(C)cc1N", "melting point": "41 to 43"}, {"smiles": "COc1cc2c(c3ccccc13)N(C(C)=O)c1ccccc1S2", "melting point": "208 to 209"}, {"smiles": "NS(=O)(=O)c1cc2c(s1)S(=O)(=O)N(CCc1ccccc1)C[C@H]2O", "melting point": "117 to 119"}, {"smiles": "COc1c(F)cccc1-c1cnn2ccc(N3CCN(C(=O)OC(C)C)CC3)nc12", "melting point": "52 to 53"}, {"smiles": "CC1(C)CC(N(c2nc(Cl)nc(N(C3CC(C)(C)N(O)C(C)(C)C3)C3CC(C)(C)N(O)C(C)(C)C3)n2)C2CC(C)(C)N(O)C(C)(C)C2)CC(C)(C)N1O", "melting point": "252 to 256"}, {"smiles": "CC(C)(C)c1ccc(S(=O)(=O)Nc2nc(-c3ncccn3)nc(OCCOc3ncc(Br)cn3)c2-c2cccs2)cc1", "melting point": "222 to 224"}, {"smiles": "O=C(NCc1cccnc1)c1ccc2n1Cc1ccccc1N(C(=O)c1ccc(-c3ccccc3CO)cc1)C2", "melting point": "119 to 121"}, {"smiles": "CCOC(=O)Cc1cccc2c(-c3ccccc3)nccc12", "melting point": 141}, {"smiles": "COC(=NS(=O)(=O)c1nc(-c2ccccc2Cl)ns1)C(C)C", "melting point": "75 to 76"}, {"smiles": "O=S(=O)(c1ccc(Cl)cc1)C(CCc1ccccc1)c1cc(F)ccc1F", "note": "(stereo unspecified)", "melting point": "111 to 113"}, {"smiles": "CCN(CC)CCOc1ccc(Nc2ncc3cc(-c4c(Cl)cccc4Cl)c(=O)n(C)c3n2)cc1", "melting point": "141 to 143"}, {"smiles": "CC1=CC(c2cccc(Cl)c2)C2=C(CCCC2=O)N1", "note": "(stereo unspecified)", "melting point": "201 to 203"}, {"smiles": "O=C(Nc1ccc(S(=O)(=O)c2ccncc2)cc1)C(O)(C(F)(F)F)C(F)(F)F", "melting point": "235 to 237"}, {"smiles": "COc1cc(OC)c(-c2cccs2)cc1/C=C/C(=O)c1ccc(S(=O)(=O)NCC(F)(F)F)cc1", "melting point": "167 to 168"}, {"smiles": "O=S(=O)(CCc1ccc(Cl)cc1)CCc1ccc(Cl)cc1", "melting point": "42 to 43"}, {"smiles": "CC(C)n1nc(-c2sc(NC(=O)c3ccccc3)nc2-c2ccc(F)cc2)ccc1=O", "melting point": "228 to 230"}, {"smiles": "CCN(c1ccc(C)cc1)c1nc(=O)c2cccnc2s1", "melting point": 158}]}]}
